Legend:
Assay type in all cases: functional
[1] = system: Mycobacterium tuberculosis; test: Antitubercular activity against multi drug-resistant Mycobacterium tuberculosis clinical isolate after 30 days by agar microdilution method
[2] = system: Mycobacterium tuberculosis; test: Antitubercular activity against extensively drug-resistant Mycobacterium tuberculosis clinical isolate after 30 days by agar microdilution method
[3] = system: Mycobacterium tuberculosis; test: Antitubercular activity against RMF-resistant Mycobacterium tuberculosis clinical isolate2 after 30 days by agar microdilution method
[4] = system: Mycobacterium tuberculosis; test: Antitubercular activity against RMF-resistant Mycobacterium tuberculosis clinical isolate1 after 30 days by agar microdilution method

Measured: MIC

OC(c1ccc(OCc2ccc(OCCN3CCCCC3)cc2)cc1)C1CC1 (centres undefined)
12.5 µg/mL: all assays above
